# Experimental data published in US20240043442A1, “SELECTIVE ESTROGEN RECEPTOR DEGRADERS AND USES THEREOF” (InventisBio LLC, priority 2016, published 2024).
# Like-named read-outs stand apart in the source and are kept apart here.
# Key:
# [1] = Human hepatocyte clearance study; format: in vitro ADME; conditions: pooled cryopreserved human hepatocytes (suspension); for hepatocyte CLint at 1 µM / half-life at 1 µM: human; for hepatocyte CLint at 1 µM: read-out: Human In vitro Clint (μL/min/10^6 cells); for half-life at 1 µM: read-out: Human In vitro T1/2; for CLint scaled at 1 µM: human hepatocytes, scaling factor 2544.3, read-out: Human Scale-up Clint
# Protocol: (§1) The in vitro hepatocyte clearance of compound described here was studied using pooled human hepatocytes purchased from BioreclamationlVT (Westbury, NY, Cat #X008001, Lot #TQJ). Assay was conducted according to manufacture's instruction. Briefly, mM tock solutions of test compound and positive control (Verapamil) were prepared in 100% DMSO. Thawing media (50 mL) used in the study consists of: 31 mL Williams E medium (GIBCO Cat #12551-032); 15 mL isotonic percoll (GE Healthcare Cat #17-0891-09); 500 uL 100×GlutaMax (GIBCO Cat #35050); 750 uL HEPES (GIBCO Cat #15630-080); 2.5 mL FBS (Corning Cat #35-076-CVR); 50 uL human insulin (GIBCO Cat #12585-014) and 5 uL dexamethasone (NICPBP). Incubation media is made of Williams E medium supplemented with 1×GlutaMax. Thawing medium and supplement incubation medium (serum-free) were placed in a 37° C. water bath for at least 15 minutes prior to use. Compound stock solutions were diluted to 100 μM by combining 198 μt of 50% acetonitrile/50% water and 2 μL of 10 mM stock solution. Verapamil was use as positive control in the assay. Vials of cryopreserved hepatocytes were removed from storage and thawed in a 37° C. water bath with gentle shaking. Contents of the vial were poured into the 50 mL thawing medium conical tube. Vials were centrifuged at 100 g for 10 minutes at room temperature. Thawing medium was aspirated and hepatocytes were re-suspended with serum-free incubation medium to yield ˜1.5×10^6 cells/mL. Hepatocyte viability and density were counted using a Trypan Blue exclusion, and then cells were diluted with serum-free incubation medium to a working cell density of 0.5×10^6 viable cells/mL. Then, a portion of the hepatocytes at 0.5×10^6 viable cells/mL was boiled for 5 min prior to adding to the plate as negative control to eliminate the enzymatic activity so that little or no substrate turnover should be observed. The boiled hepatocytes were used to prepare negative samples. Aliquots of 198 μL hepatocytes were dispensed into each well of a 96-well non-coated plate. The plate was placed in the incubator on an orbital shaker at 500 rpm for approximately 10 minutes. Aliquots of 2 μL of the 100 μM test compound or positive control were added into respective wells of the non-coated 96-well plate to start the reaction. This assay was performed in duplicate. The plate was incubated in the incubator on an orbital shaker at 500 rpm for the designed time points. Twenty-five microliter of contents were transferred and mixed with 6 volumes (150 μL) of cold acetonitrile with IS (200 nM imipramine, 200 nM labetalol and 200 nM diclofenac) to terminate the reaction at time points of 0, 15, 30, 60, 90 and 120 minutes. Samples were centrifuged at 3,220 g for 25 minutes and aliquots of 150 μL of the supernatants was used for LC-MS/MS analysis. For data analysis, all calculations were carried out using Microsoft Excel. Peak areas were determined from extracted ion chromatograms. The in vitro half-life (t1/2) of parent compound was determined by regression analysis of the percent parent disappearance vs. time curve. The in vitro half-life (in vitro t1/2) was determined from the slope value: in vitro t1/2=0.693/k. […] Scaling factors for in vivo intrinsic clearance prediction using human hepatocytes are listed as: liver weight (g liver/kg body weight): 25.7; hepatocyte concentration (10^6 cells/g liver): 99; scaling factor: 2544.3.
# pooled human hepatocytes = experiment: Human hepatocyte clearance study; format: in vitro ADME; conditions: for Human Hepatocyte Remaining Percentage @ 120 min (%): human hepatocytes 0.5x10^6 viable cells/mL; for Human In vitro Clint (μL/min/10^6 cells) / Human In vitro T1/2 / Human Scale-up Clint: human hepatocytes; for Human Scale-up Clint: scaling factor 2544.3
# Protocol: as §1
# ER [2] = biological target: T1, ER (Homo sapiens (Human), UniProt P03372); experiment: MCF-7 ER degradation assay (high content imaging); format: cell-based; conditions: MCF-7 cells, 1 nM compound, DMSO control as baseline; for MCF7 ER Degradation at 4 hr (%): 4 hours treatment; for MCF7 ER Degradation at 24 hr (%): 24 hours treatment
# Protocol: The level of ER degradation by SERD described in this patent was analyzed by cell based high content imaging method. […] Then, 1 μL of compound solution (in DMSO) was added to the cells to make a final concentration of 1 nM per each well of treated cells. DMSO at the same final concentration (%) per each well was used to serve as negative control on each plate. After 4 hours or 24 hours of treatment at 37° C. with 5% CO2, the cells were fixed and permeabilized. Media from each well was aspirated and cells were gently washed with 1×PBS for 5 minutes and the wash procedure was repeated 3 times. Cells was then fixed with 4% formaldehyde freshly made in 1×PBS at room temperature for 20 minutes, followed by gentle washing with 1×PBS, 3 times for 5 minute each. The assay plate was incubated with 200 μl of 1×PBS containing 0.2% Triton-X100 for 5 minutes at room temperature, cells were then washed again with 1×PBS 3 times for 5 minutes each. After this, cells were incubated with the blocking buffer (1×PBS with 5% BSA) at room temperature for 1 hour. For immunostaining, blocking buffer was removed and primary anti-ER antibody (ER1D5, Santa Cruz) diluted in blocking buffer (1:400) was added to each well and cells were incubated overnight at 4° C. The next day, cells were washed with 1×PBS for 3 times with 5 minute each. […] Cells were washed with 1×PBS for 3 times with 5 minute each time. Cells were incubated with DAPI (Beyotime; 1 μg/ml) for 10 minutes and washed with 1×PBS for 3 times with 5 minute each time. […] SERD induced ER degradation in the MCF-7 cells were measured using DMSO negative control as the baseline.
# [3] = Mouse PK study (iv 3 mpk, po 30 mpk); format: in vivo, male CD1 mice; conditions: male, CD1, whole blood; for clearance: 3 mg/kg, IV 3 mpk, read-out: Mouse IV 3 mpk CL (converted); for AUC(0-t) / half-life: 30 mg/kg, PO 30 mpk; for AUC(0-t): read-out: Mouse PO 30 mpk AUC last; for half-life: read-out: Mouse PO 30 mpk T½ (converted)
# Protocol: Mouse PK study (iv 3 mpk, and po 30 mpk) was conducted using male CD1 mice (25-33 g) obtained from SLAC Laboratory Animal Co., LTD of Shanghai). Compound is prepared with the following formulation: 5% DMSO, 5% Solutol HS 15 and 9% HPBCD in water. For intravenous (iv) dose at 3 mpk and oral (po) dose at 30 mpk, the compound is formulated at the concentration […] and […], respectively. Compound formulation is freshly made prior to dosing in the morning. Oral dosing is via the use of oral gavage at 10 mL/kg, while iv dosing is via tail vein at 5 mL/kg. Three mice are used for each dosing route per compound per dose. Serial blood sample (30 uL whole blood at each time point) is collected into the K2EDTA tubes via facial vein at the following time points: 5 min (for iv route only), 30 min, 1, 2, 4, 6, 8, 12 and 24 hours. For each blood sample collected, immediately transfer 20 uL blood sample and mix well with 60 uL water in a 96-well plate (whole blood:water=1:3 v/v). Diluted blood samples are stored at −80C freezer until analysis. For analysis, an aliquot of 20 μL sample was added with 200 μL IS (Glipizide, 100 ng/mL) in ACN. The mixture was vortexed for 2 min and centrifuged at 5800 rpm for 10 min. An aliquot of 2 μL supernatant was injected for LC-MS/MS analysis. Compound at 2.0-3000 ng/mL in CD1 mouse diluted blood is used for calibration curve. Pharmacokinetic data are obtained and described in the table below: […]
# [4] = test system: breast cancer cell line MCF-7; experiment: MCF-7 cell growth study (celltiter-glo luminescent viability assay); format: cell-based, human; conditions: MCF-7 cells, 6 days incubation, read-out: IC50 (nM), cell growth inhibition;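 also: viability read by luminescence after compound exposure, relative to DMSO vehicle-treated wells on the same plate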
# Protocol: Compound activity was analyzed using celltiter-glo luminescent viability assay (Promega #G7572) in breast cancer cell line MCF-7. Cells grown in log phase are trypsinized and seeded into a 96-well cell culture plate at a density of 2×10^3 per well and incubated overnight at 37° C. with 5% CO2 in humidified culture chamber. The next day, compounds were prepared in 100% DMSO and were serially diluted and added into cells in the following final concentrations: 316, 100, 31.6, 10, 3.16, 1, 0.32, 0.1, 0.03, 0.01, 0.003 and 0.001 nM. As a control, same volume and concentration of DMSO vehicle control solution was added to the control wells in each plate. The cells were incubated with compounds at 37° C. culture chamber for 6 days. Promega's celltiter-glo kit was used to analyze the cell viability, according to manufacture's instruction. Briefly, fifty microliter of celltiter-glo reagent was added to each well, plate (covered with aluminum foil) was gently vibrated for 10 min to induce cell lysis at room temperature. Luminescence was measured using a SPECTRAmax i3 reader.
# xMCF-7 xenograft tumor = experiment: Human breast cancer xMCF-7 xenograft efficacy study in mouse; format: in vivo; conditions: for tumor growth inhibition and tumor regression (FIG. 2): 2 mg/kg orally, once daily for 28 days, start at tumor ~250 mm^3
# Protocol: To investigate the in vivo efficacy of SERD compounds described in this application, female nude mice were inoculated with human ER+ breast cancer cells xMCF-7. xMCF-7 cells are derived from MCF-7 (ATCC) tumor grown in the nude mice. Briefly, female balb/c mice (age 6-7 wk) were first inoculated subcutaneously on the back with estrogen pellet (0.5 mg, 60-day release from Innovative Research of America, Cat #SE-121). Two days later, each mouse was inoculated with 5 million xMCF-7 cells, prepared as 0.2 ml cell suspension in 1:1 mix of Eagle's MEM to cell culture media and Matrigel (Corning Cat #354234) for each injection. After tumor size reached ˜235 mm^3, mice with xMCF-7 xenograft tumor are randomized to 10 mice per group and started receiving drug treatment.
# In another xMCF-7 study, treatment initiated when tumor reached ˜250 mm^3. Each drug was given at 2 mg/kg orally, once daily for 28 days.
# ER [5] = biological target: T1, ER; conditions: intramuscular injection monthly; cited from earlier work
# T1 sequence (P03372 whole entry): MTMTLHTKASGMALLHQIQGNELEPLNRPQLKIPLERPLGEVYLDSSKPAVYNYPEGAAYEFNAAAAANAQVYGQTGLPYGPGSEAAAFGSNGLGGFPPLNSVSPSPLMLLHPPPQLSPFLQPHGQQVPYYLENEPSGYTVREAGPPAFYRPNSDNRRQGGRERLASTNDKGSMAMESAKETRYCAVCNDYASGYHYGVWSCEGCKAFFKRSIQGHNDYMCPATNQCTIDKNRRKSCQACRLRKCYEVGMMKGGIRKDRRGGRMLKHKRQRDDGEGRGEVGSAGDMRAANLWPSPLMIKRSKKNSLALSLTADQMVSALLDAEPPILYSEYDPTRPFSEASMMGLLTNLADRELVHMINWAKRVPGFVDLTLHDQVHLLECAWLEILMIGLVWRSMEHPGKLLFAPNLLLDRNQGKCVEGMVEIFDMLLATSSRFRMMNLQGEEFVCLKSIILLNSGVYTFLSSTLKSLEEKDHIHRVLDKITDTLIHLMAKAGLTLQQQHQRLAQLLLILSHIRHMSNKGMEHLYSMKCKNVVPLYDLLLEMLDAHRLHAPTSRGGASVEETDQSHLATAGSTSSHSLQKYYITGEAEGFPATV
Compound,hepatocyte CLint at 1 µM [1] [µL/min/1e6 cells],half-life at 1 µM [1] [h],CLint scaled at 1 µM [1] [mL/min/kg],Human Hepatocyte Remaining Percentage @ 120 min (%) (pooled human hepatocytes),MCF7 ER Degradation at 4 hr (%) (ER [2]),MCF7 ER Degradation at 24 hr (%) (ER [2]),"IC50 ([4]; Homo sapiens, MCF7, 144 h) [nM]",further results
"C[C@@H]1Cc2c([nH]c3ccccc23)[C@@H](c2c(F)cc(/C=C/C(=O)O)cc2F)N1CC(C)(C)F [AZD9496, reference compound]",9,2.55,23,58,17,23,,clearance [3]: 19 mL/min/kg; AUC(0-t) [3]: 85 µM·h; half-life [3]: 3.5 h
C[C@@H]1Cc2c([nH]c3ccccc23)[C@@H](c2c(F)cc(OCCN3CC(CF)C3)cc2F)N1CC(C)(F)F [Compound 1],,,,88,,,,Human In vitro Clint (μL/min/10^6 cells) (pooled human hepatocytes): 1.6 μL/min/10^6 cells; Human In vitro T1/2 (pooled human hepatocytes): 14.2 h; Human Scale-up Clint (pooled human hepatocytes): 4.1 mL/min/kg; IC50 [4]: 0.3 nM
C[C@@H]1Cc2c([nH]c3ccccc23)[C@@H](c2c(F)cc(OCCN3CC(CF)C3)cc2Cl)N1CC(C)(C)F [Compound 11],2,11.1,5.3,83,,,0.4,
C[C@@H]1Cc2c([nH]c3ccccc23)[C@@H](c2c(F)cc(OCCN3CC(CF)C3)cc2Cl)N1CC(C)(F)F [Compound 12],,,,,,,0.26,tumor growth inhibition and tumor regression (FIG. 2) (xMCF-7 xenograft tumor): more efficacious than AZD9496
C[C@@H]1Cc2c([nH]c3ccccc23)[C@@H](c2c(F)cc(/C=C/C(=O)O)cc2Cl)N1CC(C)(C)F [Compound 20],,,,70,25,21,,Human In vitro Clint (μL/min/10^6 cells) (pooled human hepatocytes): 5.6 μL/min/10^6 cells; Human In vitro T1/2 (pooled human hepatocytes): 4.1 h; Human Scale-up Clint (pooled human hepatocytes): 14 mL/min/kg; IC50 [4]: 0.3 nM
C[C@@H]1Cc2c([nH]c3ccccc23)[C@@H](c2c(Cl)cc(/C=C/C(=O)O)cc2Cl)N1CC(C)(F)F [Compound 25],,,,,,,0.8,"tumor growth inhibition and tumor regression (FIG. 2) (xMCF-7 xenograft tumor): more efficacious than AZD9496; tumor growth inhibition (tumor volume change, FIG. 1) (xMCF-7 xenograft tumor; oral 5 mg/kg or 30 mg/kg once a day for 28 days, fulvestrant 250 mg/kg subcutaneously, start at tumor ~235 mm^3): more efficacious in vivo than fulvestrant, GDC-0810 and AZD9496; clearance [3]: 1.33 mL/min/kg; AUC(0-t) [3]: 658 µM·h; half-life [3]: 62 h"
C[C@@H]1Cc2c([nH]c3ccccc23)[C@@H](c2c(F)cc(/C=C/C(=O)O)cc2F)N1CC(C)(F)F [Compound 29],2.4,9.52,6.2,83,,,0.9,
CC1Cc2c([nH]c3cc(F)ccc23)C(c2c(F)cc(/C=C/C(=O)O)cc2F)N1CC(C)(C)F (stereo not drawn) [Compound 34A],,,,,21,20,,
CC1Cc2c([nH]c3ccc(F)cc23)C(c2c(F)cc(/C=C/C(=O)O)cc2F)N1CC(C)(C)F (stereo not drawn) [Compound 46A],,,,,25,20,,
"C[C@]12CC[C@@H]3c4ccc(O)cc4C[C@@H](CCCCCCCCC[S+]([O-])CCCC(F)(F)C(F)(F)F)[C@H]3[C@@H]1CC[C@@H]2O (stereo partly drawn) [Fulvestrant, reference compound]",33,0.7,86,12,29,15,,ER degradation in clinical samples (ER [5]): ~50%
"CC/C(=C(/c1ccc(/C=C/C(=O)O)cc1)c1ccc2[nH]ncc2c1)c1ccc(F)cc1Cl [GDC-0810, reference compound]",24.6,0.933,63,24,,,,clearance [3]: 15.3 mL/min/kg; AUC(0-t) [3]: 80 µM·h; half-life [3]: 2.9 h
